In patent US20060199876A1, “Bioceramic composite coatings and process for making same” (The University of British Columbia, priority 2005, published 2006):

Assay: Drug release from PCMC composite coating with PLGA diffusion barrier
Type: physicochemical
Details: release from HAP/PLGA PCMC coating of Example 9 (paclitaxel in HAP phase, Rapamycin in polymer phase) covered with 2 μm thick PLGA (85:15) layer
Experimental: Porous HAP coating was deposited on stent as in the above Example 2. The HAP porous coating stents was impregnated into 2 wt % paclitaxel methanol solution for 20 min and then removed extra solution by high speed spinning, then dried in an oven for 2 hours. The paclitaxel was filled into mesopores and partial into large pore micropores. The paclitaxel loaded stents were subsequently impregnated with 10 wt % PLGA acetone solution containing 2 wt % Rapamycin and then the extra solution removed by spinning. The biopolymer PLGA filled inside pores provides extra flexibility for HAP coatings and diffusion barrier for controlling drug release profiles. Rapamycin in the polymer phase will release much faster than that of paclitaxel only in the HAP phase.
As illustrated in the above Example 9, different drugs were encapsulated into the polymer and HAP phases. In order to add further controls for drug release profile, e.g. to further slow down the drug release rate, a functional diffusion barrier was deposited on the surface of the composite PCMC coating. In this particular example, a 2 μm thick PLGA (85:15) layer was deposited on the PCMC surface by spin-coating. Rapamycin release from such modified PCMC coating was sustained for 3-5 months and paclitaxel for 6-12 months.

CC(=O)O[C@H]1C(=O)[C@@]2(C)[C@H]([C@H](OC(=O)c3ccccc3)[C@]3(O)C[C@H](OC(=O)[C@H](O)[C@@H](NC(=O)c4ccccc4)c4ccccc4)C(C)=C1C3(C)C)[C@]1(OC(C)=O)CO[C@@H]1C[C@@H]2O [paclitaxel]
drug release sustained for: 6-12 months
